Data as given in PMC7790557, “Pleiotropic Properties of Amphiphilic Dihydropyridines, Dihydropyridones, and Aminovinylcarbonyl Compounds” (Oxidative Medicine and Cellular Longevity, 2020).
Like-named read-outs stand apart in the source and are kept apart here.

Tests used:
MH-22A (mouse hepatoma) [1] = assay: Cytotoxicity, crystal violet (CV) assay, MH-22A; type: cell-based; details: Mus musculus, read-out: MH-22A IC50 (CV)
Protocol: (§1) After incubation, the staining solution was removed. The cells were washed 4 times with water.

[2] = tested on: HT-1080 (human lung fibrosarcoma); assay: Cytotoxicity, MTT assay, HT-1080; type: cell-based; details: Homo sapiens, read-out: HT-1080 IC50 (MTT)
Text: (§2) Reduction takes place only when mitochondrial reductase enzymes are active, and therefore, conversion is directly related to the number of viable cells which can be quantified by the absorbance of the solution (between λ = 500 and 600 nm) using a spectrophotometer.

[3] = tested on: NIH3T3 (mouse embryonic fibroblast); assay: Basal cytotoxicity test, Neutral Red Uptake (NRU) assay; details: for IC50: Mus musculus, NIH3T3, 24 h
[4] = tested on: HT-1080 (human lung fibrosarcoma); assay: Cytotoxicity, crystal violet (CV) assay, HT-1080; details: Homo sapiens, HT-1080, 72 h, read-out: HT-1080 IC50 (CV)
Protocol: (§3) IC50 is the compound concentration (μg/ml) at which 50% of the cells die. […] CV staining can be used to quantify the total DNA of the remaining population and thus is used to determine the number of live cells based on the concentration of the dye which remains after staining.
(§4) Tumor cell lines HT-1080 (human connective tissue fibrosarcoma, ATCC® CCL-121™) and MH-22A (mouse hepatocarcinoma, ECACC, cat. Nr. 96121721) were used.
(§5) HT-1080 and MH-22A cells were seeded in 96-well plates in Dulbecco's modified Eagle's (DMEM) medium containing 10% fetal bovine serum and 4 mM L-glutamine, without antibiotics, and cultivated for 72 h by exposure to different concentrations of compounds. Cell viability was measured using 3-(4,5-dimethylthiazol-2-yl)-2,5-diphenyltetrazolinium bromide (MTT). In brief, after incubating with compounds, the culture medium was removed and fresh medium with 0.2 mg/ml MTT was added in each well of the plate. After incubation (3 h, 37°C, 5% CO2), the medium with MTT was removed, and 200 μl DMSO was added at once to each sample. The samples were tested at 540 nm on a Tecan Infinite M1000 multiplate reader. The IC50 was calculated using the program GraphPad Prism® 3.0.
(§6) For the CV assay, cells were stained with 0.05% crystal violet (Sigma-Aldrich) in 30% methanol for 20 minutes at room temperature. After incubation, the staining solution was removed. The cells were washed 4 times with water. For dye solubilization, 200 μl of a solubilizing solution (0.1 M citrate buffer, pH 4.2 in 50% ethanol; 1 : 1 v/v) was added. The absorbance of the solution was measured using a Tecan Infinite M1000 multiplate spectrophotometer at a wavelength of 570 nm [21].

[5] = tested on: cancer cell lines HT-1080 and MH-22A; assay: in vitro; type: cell-based
Protocol: as §1

MH-22A (mouse hepatoma) [6] = assay: Cytotoxicity, MTT assay, MH-22A; type: cell-based; details: Mus musculus, read-out: MH-22A IC50 (MTT)
Text: as §2

[7] = Cytotoxicity, crystal violet (CV) assay, MH-22A; type: cell-based, mouse; details: mouse, summarises CV and MTT values, read-out: cytotoxicity towards MH-22A cells; for IC50 at 72 h: MH-22A cells (hepatoma)
Protocol: as §1

[8] = Electrochemical oxidation potentials, cyclic voltammetry; type: physicochemical; details: glassy carbon electrode, dry acetonitrile; for Oxidation potential E^ox: Table 4, vs Ag/Ag+, 0.1 M TBABF4, tested as perchlorates; for electrooxidation potential: cyclic voltammetry
Protocol: A stationary glassy carbon disk electrode (d = 0.5 mm) served as the working electrode, while the counterelectrode was a Pt wire. The oxidation potentials were measured relative to a Ag/Ag^+ reference electrode. Acetonitrile was dried over P2O5 and distilled; the distillate was stored over CaH2 and redistilled just before use. Recrystallized tetrabutylammonium tetrafluoroborate (TBABF4) was used as a supporting electrolyte at 0.1 M concentration.
The electrochemical oxidation of the selected compounds studied in this work was performed by cyclic voltammetry on a stationary glassy carbon electrode in dry acetonitrile; the data is presented in Table 4. The perchlorates of the tested amphiphiles were obtained from the corresponding bromides by treating their abs. MeOH solutions with excess of conc. HClO4 according to the procedure elaborated by Turovska et al..

[9] = Cytotoxicity, crystal violet (CV) assay, HT-1080; details: human
Protocol: as §3, §4, §5, §6

in vitro [10] = details: mouse
Text: Data from the in vitro tests were used for estimating the starting dose for acute oral systemic toxicity tests in the rodent. The in vivo starting dose is an estimated LD50 value calculated by inserting the in vitroIC50 value into a regression formula: log LD50 (mM/kg) = 0.439 log IC50 (mM) + 0.621 [23–25]. […] Using an alternative in vitro method allows the comparison between possibly toxic new compounds and selecting compounds for further study vastly reducing the number of animal experiments.
Additionally, the compound influence on “normal” mouse fibroblasts (NIH3T3) was estimated for the studies of structure-activity relationships and exploration of the effect of substituents.

in vitro [11] = type: cell-based; details: human and mouse, summarises both cell lines, CV and MTT, read-out: cytotoxicity on cancer cell lines HT-1080 and MH-22A
Protocol: as §1

[12] = cited from earlier work
[13] = HT-1080, Table 1, 72 h exposure
[14] = read-out: NIH3T3 IC50 (NR), Table 1, 24 h exposure
[15] = HT-1080, Table 2, 72 h exposure

| Structure (SMILES) | IC50 (MH-22A (mouse hepatoma) [1]; Table 1, 72 h exposure) [µg/mL] | IC50 [2, 13] [µg/mL] | toxicity to noncancerous NIH3T3 cells (in words) [3] | IC50 [4] [µg/mL] | cytotoxicity to cancer cell lines HT-1080 and MH-22A (in words) [5] | IC50 (MH-22A (mouse hepatoma) [6]; Table 1, 72 h exposure) [µg/mL] | IC50 at 72 h [7] [µg/mL] | Oxidation potential E^ox [8] [V] | IC50 ([3]; read-out: NIH3T3 IC50 (NR)) [µg/mL] | IC50 at 72 h ([9]; HT-1080 cells (fibrosarcoma)) [µg/mL] | further results |
| --- | --- | --- | --- | --- | --- | --- | --- | --- | --- | --- | --- |
| CCCCCCCCCCCCOC(=O)C1=C(C[n+]2ccncc2)NC(C[n+]2ccncc2)=C(C(=O)OCCCCCCCCCCCC)C1c1ccccc1 [compound 16, 1,1'-((3,5-Bis((dodecyloxy)carbonyl)-4-phenyl-1,4-dihydropyridine-2,6-diyl)bis(methylne))bis(pyrazin-1-ium) dibromide] | > 100 | > 100 | nontoxic | > 100 | practically inert | > 100 | – | – | – | – | IC50 [3, 14]: > 1000 µg/mL |
| CCCCCCCCCCCCOC(=O)C1=C(C[n+]2ccc(C(F)(F)F)cc2)NC(C[n+]2ccc(C(F)(F)F)cc2)=C(C(=O)OCCCCCCCCCCCC)C1c1ccccc1.[Br-].[Br-] [compound 21, 1,1'-((3,5-Bis((dodecyloxy)carbonyl)-4-phenyl-1,4-dihydropyridine-2,6-diyl)bis(methylene))bis(4-(trifluoromethyl)pyridin-1-ium) dibromide] | 49 ± 8 | 4 ± 0.5 | – | 2 ± 0.3 | – | 19 ± 6 | 19 to 49 | 1.63 | 12 ± 4 | 2 to 4 | electrooxidation potential [8]: 1.63 V |
| O=C(OCCCCCCCCCCCC(F)(F)C(F)(F)C(F)(F)C(F)(F)C(F)(F)C(F)(F)C(F)(F)C(F)(F)F)C1=C(C[n+]2ccccc2)NC(C[n+]2ccccc2)=C(C(=O)OCCCCCCCCCCCC(F)(F)C(F)(F)C(F)(F)C(F)(F)C(F)(F)C(F)(F)C(F)(F)C(F)(F)F)C1c1ccccc1 [compound 25] | – | – | low toxicity | – | undetectable toxicity | – | – | – | – | – | – |
| CCCCCCCCCCCCOC(=O)c1c(C[n+]2ccccc2)nc(C[n+]2ccccc2)c(C(=O)OCCCCCCCCCCCC)c1-c1ccccc1.[Br-].[Br-] [compound 27, 1,1’-((3,5-Bis(dodecyloxycarbonyl)-4-phenylpyridine-2,6-diyl)bis(methylene))-bis(pyridin-1-ium)dibromide] | 3 ± 0.3 | 3.1 ± 0.5 | not harmful at all | 3.2 ± 0.8 | – | 3.3 ± 0.4 | – | – | 900 ± 42 | – | LD50 (in vitro [10]; LD50 (calculated, NIH3T3), calculated from NIH3T3 IC50): 3950 mg/kg; IC50 at 72 h (in vitro [11]; HT-1080 cells and MH-22A cells (the value covers both lines)): ~3 µg/mL |
| CCCCCCCCCCCCCCCCOC(=O)/C=C(\N)C[N+](C)(C)C1CCCCC1 [compound 39, (Z,E)-N-(2-Amino-4-(hexadecyloxy)-4-oxobut-2-en-1-yl)-N,N-dimethylcyclohexanaminium chloride] | – | – | – | 0.35 ± 0.06 | – | – | – | – | – | – | IC50 (MH-22A (mouse hepatoma) [1]; Table 3, 72 h exposure): 1 ± 0.6 µg/mL; IC50 ([2]; HT-1080, Table 3, 72 h exposure): 0.5 ± 0.1 µg/mL; LD50 (in vitro [10]; NIH3T3 LD50, Table 3, calculated from NIH3T3 IC50 by regression formula): 97 mg/kg; IC50 ([3]; read-out: NIH3T3 IC50 (NR), Table 3, 24 h exposure): 0.7 ± 0.1 µg/mL; IC50 (MH-22A (mouse hepatoma) [6]; Table 3, 72 h exposure): 0.2 ± 0.06 µg/mL |
| CCCCCCCCCCCCOC(=O)C1=C(C[n+]2ccccc2)NC(C[n+]2ccccc2)=C(C(=O)OCCCCCCCCCCCC)C1c1ccccc1.[Br-].[Br-] [compound 10, 1,1'-((3,5-Bis((dodecyloxy)carbonyl)-4-phenyl-1,4-dihydropyridine-2,6-diyl)bis(methylene))bis(pyridin-1-ium) dibromide] | – | – | – | 3 ± 0.5 | – | – | – | 1.58 | 100 ± 6 | – | IC50 [7]: 3 to 6 µg/mL; IC50 (MH-22A (mouse hepatoma) [1]; 72 h): 6 ± 1 µg/mL; IC50 ([2]; HT-1080, 72 h): 3 ± 0.3 µg/mL; electrooxidation potential [8]: 1.57–1.58 V; IC50 at 72 h [9]: ~3 µg/mL; IC50 at 72 h (in vitro [11]): 3 to 6 µg/mL; IC50 (MH-22A (mouse hepatoma) [6]; 72 h): 3 ± 0.8 µg/mL |
| COC(=O)C1=C(C[n+]2ccccc2)NC(=O)CC1c1ccccc1OC(F)F.[Br-] (centres unmarked) [compound 28, 1-({4-[2-(Difluoromethoxy)phenyl]-3-(methoxycarbonyl)-6-oxo-1,4,5,6-tetrahydropyridin-2-yl}methyl)pyridinium bromide] | – | – | – | > 100 | inert | – | – | – | 1130 ± 85 | – | IC50 (MH-22A (mouse hepatoma) [1]; Table 2, 72 h exposure): > 100 µg/mL; IC50 [2, 15]: > 100 µg/mL; IC50 (MH-22A (mouse hepatoma) [6]; Table 2, 72 h exposure): > 100 µg/mL |
| O=C(OCCCCCCCCCCCC(F)(F)F)C1=C(C[n+]2ccccc2)NC(C[n+]2ccccc2)=C(C(=O)OCCCCCCCCCCCC(F)(F)F)C1c1ccccc1.[O-][Cl+3]([O-])([O-])[O-].[O-][Cl+3]([O-])([O-])[O-] [compound 22, 1,1'-((4-phenyl-3,5-bis(((12,12,12-trifluorododecyl)oxy)carbonyl)-1,4-dihydropyridine-2,6-diyl)bis(methylene))bis(pyridin-1-ium) diperchlorate] | 10 ± 1 | 10 ± 2 | – | 18 ± 5 | – | 19 ± 5 | 10 to 19 | 1.57 | – | 10 to 18 | IC50 [3, 14]: 16 ± 3 µg/mL |
| CCCCCCCCCCCCOC(=O)C1=C(C[n+]2cccc(C(C)=O)c2)NC(C[n+]2cccc(C(C)=O)c2)=C(C(=O)OCCCCCCCCCCCC)C1c1ccccc1.[Br-].[Br-] [compound 14, 1,1'-((3,5-Bis((dodecyloxy)carbonyl)-4-phenyl-1,4-dihydropyridine-2,6-diyl)bis(methylene))bis(3-acetylpyridin-1-ium) dibromide] | 100 ± 13 | 3 ± 0.3 | practically nontoxic | 3 ± 0.4 | – | 49 ± 9 | 50 to 100 | – | 922 ± 24 | ~3 | – |
| CCCCCCCCCCCCOC(=O)C1=C(C[n+]2ccc(C)cc2)NC(C[n+]2ccc(C)cc2)=C(C(=O)OCCCCCCCCCCCC)C1c1ccccc1.[Br-].[Br-] [compound 12, 1,1'-((3,5-Bis((dodecyloxy)carbonyl)-4-phenyl-1,4-dihydropyridine-2,6-diyl)bis(methylene))bis(4-methylpyridin-1-ium) dibromide] | 40 ± 2 | 5 ± 1 | – | 10 ± 2 | – | 29 ± 2 | 29 to 40 | – | 79 ± 11 | 5 to 10 | – |
| CCOC(=O)C1=C(C)NC(C)=C(C(=O)OCC)C1 [Diludin, reference compound] | – | – | – | – | – | – | – | – | – | – | antiradical activity (ARA) [12]: 40% |
| COC(=O)C1=C(C[n+]2ccccc2)N(Cc2ccccc2)C(=O)CC1.[O-][Cl+3]([O-])([O-])[O-] [compound 29, 1-{[1-Benzyl-3-(methoxycarbonyl)-6-oxo-1,4,5,6-tetrahydropyridin-2-yl]methyl}pyridinium perchlorate] | – | – | – | > 100 | inert | – | – | 2.35 | – | – | IC50 (MH-22A (mouse hepatoma) [1]; Table 2, 72 h exposure): > 100 µg/mL; IC50 [2, 15]: > 100 µg/mL; electrooxidation potential [8]: 2.35 V; IC50 ([3]; read-out: NIH3T3 IC50 (NR), Table 2, 24 h exposure): 972 ± 27 µg/mL; IC50 (MH-22A (mouse hepatoma) [6]; Table 2, 72 h exposure): > 100 µg/mL |
